According to PubChem BioAssay AID248 (DTP/NCI, 2004):
Where “and” joins values, the source holds several entries; their conditions need not be identical. Identical values can stand only once. Inconclusive results and toxic doses are left out. No stated cut-off is given here; in the data, active means T/C of 150% or more; inactive means T/C below 125%.

Tested on: L1210 leukemia ip in BDF1 mice, survival T/C
Assay: NCI In Vivo Anticancer Drug Screen. Data for tumor model L1210 Leukemia (intraperitoneal) in B6D2F1 (BDF1) mice
Conditions: endpoint: mean survival time, higher = longer survival
Outline: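 In this screen, tumor-bearing mice given compound are compared to those given vehicle, and their survival values are reported as a treated-to-control quotient.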

[1] = dose: 50.0 mg/kg/injection, schedule: Q01DX001 (ip), vehicle: saline
[2] = dose: 25.0 mg/kg/injection, schedule: Q04DX002 (ip), vehicle: saline
[3] = dose: 50.0 mg/kg/injection, schedule: Q04DX002 (ip), vehicle: saline
[4] = dose: 100.0 mg/kg/injection, schedule: Q04DX002 (ip), vehicle: saline
[5] = dose: 100.0 mg/kg/injection, schedule: Q04DX002 (ip), vehicle: Klucel (hydroxypropylcellulose) (HPC)
[6] = dose: 200.0 mg/kg/injection, schedule: Q04DX002 (ip), vehicle: Klucel (hydroxypropylcellulose) (HPC)
[7] = dose: 400.0 mg/kg/injection, schedule: Q04DX002 (ip), vehicle: Klucel (hydroxypropylcellulose) (HPC)
[8] = dose: 50.0 mg/kg/injection, schedule: Q01DX001 (ip), vehicle: carboxymethylcellulose (CMC)
[9] = dose: 100.0 mg/kg/injection, schedule: Q01DX001 (ip), vehicle: carboxymethylcellulose (CMC)
[10] = dose: 200.0 mg/kg/injection, schedule: Q01DX001 (ip), vehicle: carboxymethylcellulose (CMC)
[11] = dose: 400.0 mg/kg/injection, schedule: Q01DX001 (ip), vehicle: carboxymethylcellulose (CMC)
[12] = dose: 50.0 mg/kg/injection, schedule: Q01DX009 (ip), vehicle: Klucel (hydroxypropylcellulose) (HPC)
[13] = dose: 100.0 mg/kg/injection, schedule: Q01DX009 (ip), vehicle: Klucel (hydroxypropylcellulose) (HPC)
[14] = dose: 200.0 mg/kg/injection, schedule: Q01DX009 (ip), vehicle: Klucel (hydroxypropylcellulose) (HPC)
[15] = dose: 100.0 mg/kg/injection, schedule: Q01DX001 (ip), vehicle: saline
[16] = dose: 200.0 mg/kg/injection, schedule: Q01DX001 (ip), vehicle: saline
[17] = dose: 400.0 mg/kg/injection, schedule: Q01DX001 (ip), vehicle: saline

Measured: T/C

CCCC1(CN2c3ccccc3Sc3ccccc32)CCN(CC)C1 (centres undefined)
inactive: dose: 9.37 mg/kg/injection, schedule: Q01DX009 (ip), vehicle: saline 101 % of control | dose: 12.5 mg/kg/injection, schedule: Q01DX001 (ip), vehicle: saline 97 % of control and 100 % of control | dose: 12.5 mg/kg/injection, schedule: Q04DX003 (ip), vehicle: saline 103 % of control | dose: 18.75 mg/kg/injection, schedule: Q01DX009 (ip), vehicle: saline 95 % of control | dose: 25.0 mg/kg/injection, schedule: Q01DX001 (ip), vehicle: saline 95 % of control | dose: 25.0 mg/kg/injection, schedule: Q04DX003 (ip), vehicle: saline 103 % of control | dose: 37.5 mg/kg/injection, schedule: Q01DX009 (ip), vehicle: saline 92 % of control | [1] 95 % of control and 87 % of control | dose: 50.0 mg/kg/injection, schedule: Q04DX003 (ip), vehicle: saline 97 % of control | dose: 75.0 mg/kg/injection, schedule: Q04DX003 (ip), vehicle: saline 103 % of control

NCC1OC(n2ccc(=O)[nH]c2=O)CC1O (centres undefined)
inactive: [2] 93 % of control | [3] 101 % of control | [4] 108 % of control

OCC1OC(c2ccccc2)OC(CO)C(O)C1O (centres undefined)
inactive: dose: 100.0 mg/kg/injection, schedule: Q04DX003 (ip), vehicle: saline with Tween-80 88 % of control | dose: 200.0 mg/kg/injection, schedule: Q04DX003 (ip), vehicle: saline with Tween-80 88 % of control

CCOc1ccc(N=Nc2ccc(N)cc2N)cc1
inactive: [5] 96 % of control | [6] 101 % of control | [7] 96 % of control

Nc1ccc(C(=O)/C=C/c2ccccn2)cc1
inactive: [8] 97 % of control | [9] 103 % of control | [10] 105 % of control | [11] 103 % of control

Cc1ccc(NC(=O)Oc2ccc3ccccc3c2)cc1NC(=O)Oc1ccc2ccccc2c1
inactive: dose: 100.0 mg/kg/injection, schedule: Q01DX009 (ip), vehicle: other 91 % of control | dose: 200.0 mg/kg/injection, schedule: Q01DX009 (ip), vehicle: other 93 % of control | dose: 400.0 mg/kg/injection, schedule: Q01DX009 (ip), vehicle: other 91 % of control

CCCCCCCCCCCCCCCCCC(=O)N/N=C/C=C/c1ccccc1
inactive: [12] 101 % of control | [13] 98 % of control | [14] 101 % of control and 91 % of control | dose: 400.0 mg/kg/injection, schedule: Q01DX009 (ip), vehicle: Klucel (hydroxypropylcellulose) (HPC) 100 % of control

Cc1nc2ccccc2c(Oc2ccccc2)c1-c1ccccc1
inactive: [1] 102 % of control | [15] 102 % of control | [16] 104 % of control | [17] 96 % of control

[N-]=[N+]=NCC1OC(n2cnc3c(NC=O)ncnc32)CC1C(=O)O (centres undefined)
inactive: [8] 109 % of control | [9] 101 % of control | [10] 114 % of control | [11] 95 % of control

CCOC(=O)C1c2cc3c(cc2C(c2cc(OC)c(OC)c(OC)c2)C2C(=O)OCC12)OCO3 (centres undefined)
inactive: dose: 2.5 mg/kg/injection, schedule: Q01DX009 (ip), vehicle: Klucel (hydroxypropylcellulose) (HPC) 112 % of control | dose: 3.0 mg/kg/injection, schedule: Q01DX009 (ip), vehicle: Klucel (hydroxypropylcellulose) (HPC) 124 % of control | dose: 4.0 mg/kg/injection, schedule: Q01DX009 (ip), vehicle: Klucel (hydroxypropylcellulose) (HPC) 105 % of control | dose: 6.0 mg/kg/injection, schedule: Q01DX009 (ip), vehicle: Klucel (hydroxypropylcellulose) (HPC) 113 % of control | dose: 9.0 mg/kg/injection, schedule: Q01DX009 (ip), vehicle: Klucel (hydroxypropylcellulose) (HPC) 115 % of control | dose: 12.5 mg/kg/injection, schedule: Q01DX009 (ip), vehicle: Klucel (hydroxypropylcellulose) (HPC) 88 % of control

Cc1cnc2c(N)nc(N)nc2n1
inactive: [5] 110 % of control | [6] 98 % of control | [7] 94 % of control

Cc1ncc2c(=O)n(-c3ccc(C(=O)O)cc3)[nH]c2n1
inactive: dose: 75.0 mg/kg/injection, schedule: Q04DX003 (ip), vehicle: Klucel (hydroxypropylcellulose) (HPC) 103 % of control | dose: 100.0 mg/kg/injection, schedule: Q01DX001 (ip), vehicle: Klucel (hydroxypropylcellulose) (HPC) 94 % of control | dose: 150.0 mg/kg/injection, schedule: Q04DX003 (ip), vehicle: Klucel (hydroxypropylcellulose) (HPC) 106 % of control | dose: 200.0 mg/kg/injection, schedule: Q01DX001 (ip), vehicle: Klucel (hydroxypropylcellulose) (HPC) 97 % of control | dose: 300.0 mg/kg/injection, schedule: Q04DX003 (ip), vehicle: Klucel (hydroxypropylcellulose) (HPC) 90 % of control | dose: 400.0 mg/kg/injection, schedule: Q01DX001 (ip), vehicle: Klucel (hydroxypropylcellulose) (HPC) 110 % of control

COc1ccccc1OC(=O)Nc1ccc(S(=O)(=O)N(C)C)cc1
inactive: [15] 97 % of control | dose: 100.0 mg/kg/injection, schedule: Q04DX003 (ip), vehicle: saline 97 % of control | [16] 100 % of control | dose: 200.0 mg/kg/injection, schedule: Q04DX003 (ip), vehicle: saline 95 % of control | [17] 91 % of control | dose: 400.0 mg/kg/injection, schedule: Q04DX003 (ip), vehicle: saline 97 % of control

O=C(CNC(=O)c1ccccc1)N/N=C/c1cccc([N+](=O)[O-])c1
inactive: dose: 25.0 mg/kg/injection, schedule: Q01DX009 (ip), vehicle: saline with Tween-80 95 % of control | dose: 50.0 mg/kg/injection, schedule: Q01DX009 (ip), vehicle: saline with Tween-80 90 % of control | dose: 100.0 mg/kg/injection, schedule: Q01DX009 (ip), vehicle: saline with Tween-80 88 % of control

CC(C)(C)NS(=O)(=O)/C=C/c1ccccc1
inactive: dose: 50.0 mg/kg/injection, schedule: Q01DX009 (ip), vehicle: acetone 95 % of control | dose: 100.0 mg/kg/injection, schedule: Q01DX001 (ip), vehicle: acetone 101 % of control | dose: 100.0 mg/kg/injection, schedule: Q01DX009 (ip), vehicle: acetone 93 % of control | dose: 200.0 mg/kg/injection, schedule: Q01DX001 (ip), vehicle: acetone 102 % of control | dose: 200.0 mg/kg/injection, schedule: Q01DX009 (ip), vehicle: acetone 92 % of control | dose: 400.0 mg/kg/injection, schedule: Q01DX001 (ip), vehicle: acetone 96 % of control

Clc1ccc(C(Cl)(Cl)Cl)cc1Cl
inactive: [12] 110 % of control | [13] 103 % of control | dose: 100.0 mg/kg/injection, schedule: Q04DX003 (ip), vehicle: Klucel (hydroxypropylcellulose) (HPC) 106 % of control | [14] 98 % of control | dose: 200.0 mg/kg/injection, schedule: Q04DX003 (ip), vehicle: Klucel (hydroxypropylcellulose) (HPC) 106 % of control

O=C(CCC(=O)Nc1ccccc1)Nc1ccccc1
inactive: [9] 96 % of control | [10] 102 % of control | [11] 102 % of control

O=C(NCCl)Nc1ccccc1
inactive: [2] 106 % of control | [3] 106 % of control | dose: 100.0 mg/kg/injection, schedule: Q04DX002 (ip), vehicle: saline + alcohol 100 % of control | [4] 100 % of control
